“Also recorded” adds a separate entry of the source.
What was measured:
[1] = tested on: NFκB; assay: TNF-α-induced NFκB activation (luciferase activity) in keratinocytes; assay type: cell-based; conditions: 25 ng/ml TNF-α co-treated 8 hours, 100 μM DON, 5 μM Bay11-7082, vs TNF-α only-treated group
Procedure: (§1) This example was intended to indirectly confirm the inhibition of chemokine secretion and histone acetylation by confirming the activity of NFκB in skin cells with a dermatitis lesion, and confirming whether the accelerated NFκB activity was inhibited.
(§2) NIH3T3/NFκB-luc cells, which is a cell line capable of confirming the activity of an NFκB transcription factor through luciferase activity were treated with 25 ng/ml of TNF-α to activate an NFκB signal, and as a positive control, 5 μM of a TNF-α inhibitor, Bay11-7082 (Bay), causing an NF-κB signaling inhibitory action was used. NIH3T3/NFκB-luc cells were dispensed at […] in a 96-well plate, and stabilized in an incubator for 24 hours. To confirm the DON efficacy on NFκB, TNF-α and 100 μM DON were co-treated for 8 hours and then lysed, thereby obtaining a cell enzyme solution, and then the cell enzyme solution was reacted with luciferin, and luciferase activity was measured using a luminometer (FIGS. 3 and 4). The difference in the number of cells between treatment groups was corrected with the resulting values of luciferase activity using protein quantification.

[2] = tested on: NFκB; assay: TNF-α-induced NFκB activation (luciferase activity) in fibroblasts (NIH3T3/NFκB-luc cells); assay type: cell-based; conditions: 25 ng/ml TNF-α co-treated 8 hours, 100 μM DON, 5 μM Bay11-7082, vs TNF-α only-treated group
Procedure: as §1, §2

[3] = tested on: TPA-induced inflammation; assay: TPA-induced inflammation inhibiting experiment (mouse ear); assay type: in vivo, C57BL/6 female mice; conditions: for visual skin condition of the ear area: after 5 days of application, compared to a negative control (FIG. 6); for number of mast cells / penetration of mast cells into lesion: toluidine blue staining, 200× image, DEX 3 mg, CRI 0.6 mg, DON 0.1 mg on ears, vs TPA positive control
Procedure: For an experiment of inducing and inhibiting inflammation using 12-O-tetradecanoylphorbol-13-acetate (TPA, Sigma), 14 week-old C57BL/6 female mice were purchased from NARA Biotech (Korea) and used. The purchased mice were acclimated for 7 days, and healthy animals were selected and tested. During the experimental period, the mice were raised while maintaining the environment at a temperature of 21 to 25° C., a relative humidity of 45 to 65% and a lighting time of 12 hours, and freely fed feed and drinking water.
First, the acclimated mice with similar characteristics such as a body weight and size were divided into five experimental groups of 3, and separately raised to confirm an anti-inflammation level. Inflammation was induced by first applying 1.0 ug of TPA to each of both ears of a mouse, and after 1 hour, a therapeutic material was applied, which was continued for 5 days. A mouse to which only acetone (Merck), which is a TPA solvent, was applied was set as a negative control (Vehicle), a mouse to which 1.0 ug of TPA dissolved in acetone was applied was set as a positive control and evaluated, and after TPA was applied, mice to which each of 3 mg of dexamethasone (DEX, Sigma), 0.6 mg of crisaborole (CRI, ChemScene) and 0.1 mg of 6-diazo-5-oxo-L-norleucine (DON, Sigma) was applied were set as experimental groups. After applying each material for 5 days by the above-described method, the weight, ear thickness and ear weight of each mouse were measured, and ear tissue was collected and histologically analyzed by hematoxylin & eosin (H&E) staining and toluidine blue staining.
FIG. 8 is a graph obtained by scoring visually evaluated ear lesions, divided into erythema, scaling and a thickness, and in the graph, the severity of symptoms was rated on a 5-point scale (0=none; 1=slight; 2=moderate; 3=marked; and 4=very marked).
Afterward, to confirm the anti-inflammatory effect of DON, the mouse's ear thickness and ear weight were measured and quantified (FIGS. 9A and 9B), and, based on the histological analysis result obtained by toluidine blue staining capable of confirming mast cells, the number of mast cells was measured by comparing three tissue samples per group using a 200× image (FIG. 9C). […] Therefore, it was confirmed that DON can alleviate pruritus symptoms by inhibiting the histamine secretion not only from epithelial cells but also from mast cells, and can also prevent severe dermatitis caused by secondary infection.

[4] = tested on: IMQ-induced psoriasis; assay: IMQ-induced psoriasis inhibiting experiment (mouse back); assay type: in vivo, female C57/BL6 mice; conditions: 0.05% DON, 100 μl on back
Procedure: For a psoriasis inhibition experiment using imiquimod (IMQ, Tokyo Chemical Industry, 10747-100 mg), as an experimental animal, female C57/BL6 mice (n=5) were used. First, to induce psoriasis, sensitization was preceded by evenly applying 4 mg IMQ to the completely shaved back of each of the mice in all groups except a negative control at a volume of 100 μl. For the negative control, the same amount of a solvent without IMQ was applied. Psoriasis was induced by applying IMQ a total of five times at 24-hour intervals for 5 days, and for treatment groups, the same site was treated (applied) with 0.05% dexamethasone (DEX) ([…], 100 μl) or 0.05% DON (0.5 mg/ml, 100 μl) dissolved in ethanol one hour after IMQ treatment.
The severity of scaling (FIG. 20) visually evaluated at a lesion site was classified and evaluated by rating, and the severity of the symptom was rated on a 5-point scale (0=none; 1=slight; 2=moderate; 3=marked; and 4=very marked), and plotted on a graph.

[5] = tested on: oxazolone-induced atopic dermatitis; assay: Oxazolone-induced atopic dermatitis inhibiting experiment (mouse ear); assay type: in vivo, female BALB/c mice
Procedure: Using five 8-week-old female BALB/c mice per group, an effect of inhibiting oxazolone-induced atopic dermatitis was tested. In the experiment, dermatitis induced on the car of each mouse was treated with a therapeutic candidate, and it was attempted to confirm an effect depending on an administration route of a therapeutic agent through percutaneous application or subcutaneous injection. First, to induce atopic dermatitis in all groups excluding the negative control, 0.35 mg of 4-ethoxymethylene-2-phenyl-2-oxazolin-5-one (oxazolone, OXA) was mixed with 30 μl of acetone, and sensitization was preceded on each of the both ears with the 1% mixture. The same amount of a solvent without OXA was applied for the negative control (vehicle). From 7 days after the initial application of OXA, OXA (0.5%) was additionally applied every two days to induce dermatitis. For treatment groups, dexamethasone (DEX), tacrolimus (TAC), cyclosporine (CYCL), crisaborole (CRI) and DON were used. For percutaneous application, each time OXA was applied, after 1 hour, each of the therapeutic candidates was treated on both ears, and in the administration test via subcutaneous injection, injection was performed 1 hour after OXA treatment, but intermittently performed every two days. As an excipient used in the subcutaneous injection, filtered distilled water was used, and the control was also administered the same amount of sterile water. Finally, on day 22 after the initial OXA application, the experiment was terminated, and the mice were sacrificed and autopsied, ear tissue was collected, and to confirm the morphological structure of the tissue, H&E staining was performed, and to count the number of the infiltrated mast cells, toluidine blue staining was performed.
FIGS. 14A and 14B were obtained by quantifying the total number of cells and the number of mast cells, which are infiltrated into the dermis, from the staining results. (a) The cell numbers were compared using the total number of infiltrated cells in 200 square micrometers (μm^2), and (b) the mast cells infiltrated into the same area were converted into percentage (%) with respect to the total cell number.

[6] = ear lesion, DON 0.1 mg, 5 days (FIG. 8)

SMILES	NFκB activity by TNF-α (luciferase activity) [1]	NFκB activity by TNF-α (luciferase activity) [2]	visual skin condition of the ear area [3]	number of mast cells / penetration of mast cells into lesion ([3]; after 5 days)	skin thickness at the lesion ([4]; 5 days (FIG. 21))	severity of scaling (visual score, 5-point scale) ([4]; 5 days, vs IMQ positive control (FIG. 20))	weight (g) of ear tissue ([5]; 0.1% (0.0272 mg), ear, percutaneous application (FIG. 12A))	thickness (mm) of ear tissue ([5]; 0.1% (0.0272 mg), ear, percutaneous application (FIG. 12B))	visual symptoms of atopic dermatitis (tissue swelling, eczema, deformation of the ear tissue) ([5]; 0.1% (0.0272 mg), ear, percutaneous application, vs OXA group (FIG. 11))	number of immune cells introduced into the dermis ([5]; histological analysis, total infiltrated cells in 200 μm^2)	thickness of the epithelium ([5]; oxazolone-induced inflammation, inflammatory lesion treated with DON (FIG. 2))	number of mast cells / penetration of mast cells into lesion ([5]; toluidine blue staining, dermis of ear, day 22)	changes in the epithelium of skin ([5]; visual and histological analysis)	thickened skin tissue of the epidermis and dermis (histological analysis) ([3]; H&E, after 5 days, DON 0.1 mg on ears (FIG. 7))	thickness of the epithelium ([3]; TPA-induced inflammation, inflammatory lesion treated with DON (FIG. 1))	degree of erythema (visual score, 5-point scale) [3, 6]	degree of scaling (visual score, 5-point scale) [3, 6]	degree of thickness (visual score, 5-point scale) [3, 6]
Cc1ccc(S(=O)(=O)/C=C/C#N)cc1 [Bay11-7082, reference compound]	decreased	decreased																
N#Cc1ccc(Oc2ccc3c(c2)COB3O)cc1 [CRI, crisaborole, reference compound]			showed erythema and scaling	significantly decreased														
[N-]=[N+]=CC(=O)CC[C@H](N)C(=O)O [DON, 6-diazo-5-oxo-L-norleucine]	reduced; also recorded: inhibited	reduced; also recorded: inhibited	showed erythema and scaling	significantly decreased; also recorded: weakened	significantly reduced	significantly decreased	significantly decreased	significantly decreased	significant skin improvement	significantly reduces; also recorded: small	significantly reduced	significantly reduces; also recorded: weakened	significantly reduces	becomes thinner	significantly reduced	significantly reduced	significantly reduced	significantly reduced
